Measured values reported in patent publication US4436752A, “Treatment of gastric and gastro-duodenal disorders with derivatives of phenyl aliphatic carboxylic acids” (Roussel Uclaf, priority 1981, dated 1984).

Tests used:
[1] = tested on: ulcers in rats at the level of the stomach; test: Determination of the anti-ulcer activity (SHAY's technique, ulcers induced by ligature of the pylorus); assay type: in vivo; settings: rat, per os, about 16 hours after treatment
Source text: (1) Determination of the anti-ulcer activity
The technique used is described by SHAY et al. in Gastroenterology, 5, 43 (1945).
SHAY's technique consists of inducing ulcers in rats at the level of the stomach by ligature of the pylorus.
The animals are anesthetized with ether. A longitudinal incision is made about 1 cm below the sternum, the glandular portion of the stomach and the duodenum are uncovered and a ligature is placed a few millimeters below the pylorus. The muscular plane is left as is and the skin is sutured by two clips.
The animals then immediately receive the dispersive or the substance to be studied per os in a volume of 0.5 ml/100 g, and are kept without food or drink until sacrificed by carotid section, effected about 16 hours after the treatment.
Before removing the stomach, a ligature is placed above the cardia.
The gastric fluid is collected in order to measure its pH.
The stomach is then opened along the greater curvature, rinsed in physiological serum and spread on graph paper in order to be examined under a binocular lens.
The severity of the lesions, graded from 0 to 4 for each stomach, is then evaluated macroscopically.
The average intensity of the ulcerations is determined for each lot of rats and the protection is calculated as the ratio of the mean index for the treated group to the mean index for the control group.
The pH of the gastric fluid is also determined for the treated animals and the control animals.

[2] = Determination of acute toxicity (LD50, oral route); settings: mouse, in vivo, mice
Description: (2) Determination of acute toxicity
The lethal dose LD50 of the derivatives of Examples 1 and 2 was evaluated after administration by oral route to mice.

SMILES: COc1ccc(C(=O)/C=C/C(=O)O)c(OC)c1OC [Example 2, (E) 4-(2,3,4-trimethoxyphenyl)-4-oxo-2-butenoic acid]
- Ulceration % protection, with respect to the controls ([1]; 0.8 mg/kg): 17%
- pH of the gastric fluid, treated animals ([1]; 0.8 mg/kg, control animals 3.5): 3.1
- Ulceration % protection, with respect to the controls ([1]; 4 mg/kg): 76%
- pH of the gastric fluid, treated animals ([1]; 4 mg/kg, control animals 3.2): 3.7
- Ulceration % protection, with respect to the controls ([1]; 20 mg/kg): 99%
- pH of the gastric fluid, treated animals ([1]; 20 mg/kg, control animals 3.2): 5.8
- LD50 [2]: ~300 mg/kg

SMILES: COc1ccc(C(=O)CC(O)C(=O)O)c(OC)c1OC (stereo not shown) [Example 1, 4-(2,3,4-trimethoxyphenyl)-4-oxo-2-hydroxy butanoic acid]
- Ulceration % protection, with respect to the controls ([1]; 100 mg/kg): 41%
- pH of the gastric fluid, treated animals ([1]; 100 mg/kg, control animals 2.7): 3.3
- LD50 [2]: > 1000 mg/kg
